US9463189B2 (BPV Holdings, LLC, priority 2007, dated 2016)
Structures can show the parent of a compound that is named as a salt.

What was measured:
[1] = system: NASH mice; test: Hepatic fibrosis, Trichrome staining of liver sections; assay type: in vivo, C57B1/6J mice
Text: Early Steatosis Model: C57B1/6J mice (22-39 days old) mice were used for the study. Mice were fed normal chow food (Lab Diet, 5P14Prolab Animal Diet, PMI Nutritional International, Brentwood, Mo., Cat# RMH 2500) or 58% high fat diet (HFD, 58 kcal % fat and corn starch with purple dye, Research Diets, New Brunswick, N.J., Cat# D12330 equivalent to Western diet) for 120-150 days. […] This group is referred to as the HFD-low body group in FIG. 1A (insulin & liver fat accumulation˜normal). On the other hand, one fifth of the mice gained 60-70% higher body weight (compared to normal chow fed mice) while on the same HFD diet (NASH group, very high insulin and liver fat) further shown in FIG. 1A. […]
The development of NASH was further confirmed using histological analyses of liver. The sections were analyzed for 1) hepatic steatosis 2) necroinflammation, and 3) fibrosis. Histological analyses of hepatic steatosis was assessed by quantitative image analysis of Oil Red O stain in liver sections and defined as the percentage of Oil Red ‘O’ positive area relative to the total image area.
Following 120-150 days on the HFD, mice in the NASH group were treated with Compound 2 (5 or 10 mg/Kg/day) or vehicle (10% Encapsin) for 42 days. […] Body weight and food intake was measured throughout the study. […]

[2] = system: NASH mice; test: Glucose tolerance testing (ipGTT) in NASH mice; assay type: in vivo, C57B1/6J mice
Description: Following 120-150 days on the HFD, mice in the NASH group were treated with Compound 2 (5 or 10 mg/Kg/day) or vehicle (10% Encapsin) for 42 days. Fasting and post prandial (PP) blood draws were taken at the beginning of the study (compound treatment) to identify and confirm the NASH group and during the study to evaluate various pharmacological responses. Since the NASH mice are severely hyperinsulinemic compared to NC mice, glucose tolerance testing (GTT, measures peripheral insulin resistance) was performed to evaluate the effect of Compound 2 on improvement of peripheral insulin sensitivity. […] Body weight and food intake was measured throughout the study.
Mice were then fasted overnight at 1700 hours for an experiment the following morning at 9:30 am. The animals were restrained in a towel to reduce handling stress and blood collection was from tail nick. Heat lamps were turned on 5 minutes prior to blood draws to warm animals slightly facilitating the flow of blood resulting in a decreased collection time. Blood glucose was measured using an Accu-check Compact Monitoring Kit (Roche Diagnostics, Indianapolis, Ind., Cat #3149137). Blood was also collected (˜100 μl) into EDTA microvettes (Sarstedt, Newton, N.C., Cat#16.444.100) for insulin ELISA analysis. After baseline blood collection, 2 g/kg Dextrose (Hospira, Lake Forest, Ill., NDC#0409-6648-02) was administered by intraperitoneal injection followed by glucose readings and blood draws (˜50 ul) at time points of 15, 30, 60, and 120 minutes post glucose challenge. Mice were kept in their home cages in between collection intervals.
Insulin fasting plasma samples were tested using Mercodia ultra sensitive mouse insulin ELISA: 2.5 μL EDTA plasma, ALPCO Diagnostics, Uppsala, Sweden, Cat #08-10-1150-99, LOQ (0.22-7.1 μg/L). Mouse JE/MCP-1 post prandial samples were collected at sacrifice. 12.5 μL EDTA plasma, R & D Systems, Minneapolis, Minn., Cat # MFE00, LOQ (15.6-1000 pg/mL).

[3] = oral administration, NASH mice, p<0.05 vs. vehicle

C[C@@H]1CN(Cc2ccc(OC(F)(F)F)cc2)C[C@H](C)N1S(=O)(=O)c1cccc2c1C[C@@H](C(=O)O)C2 [Compound 2, (S)-4-[cis-2,6-Dimethyl-4-(4-trifluoromethoxy-benzyl)-piperazine-1-sulfonyl]-indan-2-carboxylic acid tosylate]
attenuation of progression of fibrosis, Trichrome staining of liver sections ([1]; 10 mg/Kg/day, p<0.03, FIG. 3B): 41% | progression to fibrosis measured by histological presence of collagen deposits in the liver ([1]; oral administration, NASH mice, summary): attenuated progression to fibrosis | insulin secretion during ipGTT ([2]; 21 days, 10 mg/Kg/day, compared to vehicle-treated animals): reduced insulin secretion | peripheral insulin resistance ([2]; 21 days, 10 mg/Kg/day, ipGTT, compared to vehicle-treated animals): improved peripheral insulin resistance | glucose disposal [2, 3]: improved glucose disposal | insulin sensitivity [2, 3]: improved insulin sensitivity
